Series [1] concerns isolated guinea pig ileum. Briefly: Spasmolytic action in vitro against potassium chloride-induced contraction on the isolated guinea pig ileum. The series is classed as cell-based. The following applies: Cavia porcellus, 50 mmol/l KCl, Tyrode solution, 37° C., read-out: EC50 (approximately 50% reduction in the maximum potassium chloride-induced contraction). From the text:
In a physiological saline solution, isolated organ strips from the gastrointestinal tract such as gastric fundus, gastric antrum, duodenum, ileum, proximal colon and distal colon react to the addition of a spasmogen, for example potassium chloride solution, by contracting. This contraction of the organ strips, induced by the addition of spasmogen, is decreased by addition of the compounds of the invention. The extent of the regression of the contraction is an index of the spasmolytic activity of the compounds. Determination of spasmolytic activity against potassium chloride-induced spasms in isolated guinea pig ileum.
Female guinea pigs of the Wiga strain having a body weight of about 300 g were sacrificed. Organ strips from the ileum about 1 cm long were placed in an organ bath of Tyrode solution at 37° C. and mounted in a conventional apparatus for the isotonic measurement of changes in length. Tyrode solution is an aqueous solution containing 136.9 mmol of NaCl, 2.68 mmol of KCl, 2.31 mmol of CaCl2, 1.0 mmol of MgCl2, 11.9 mmol of NaHCO3, 1.45 mmol of NaH2 PO4 and 5.55 mmol of glucose per liter. After an equilibration phase of one hour, 50 mmol/l of potassium chloride were added to the bath fluid to test the sensitivity of the ileum strips. The strips were then rinsed again with Tyrode solution. 50 mmol/l of potassium chloride were then added to the bath fluid again to induce a contraction of the ileum strip due to spasm. As soon as the contraction of the ileum strip due to spasm has reached a constant maximum value, the test substance was added to the bath fluid, and the decrease in the contraction was recorded and calculated as a % of the constant maximum contraction.
The following table A gives the obtained by the test method described above. The example numbers given in the table for the compounds of formula I correspond to the numbers of the subsequent Preparation Examples. In Table A, the EC50 represents the concentration of the test substance in moles/liter in the bath fluid with which an approximately 50% reduction is achieved in the strength of the maximum spasmodic contraction induced in the ileum strip by potassium chloride.

The subject of the next series is colon. Briefly: Activity on spontaneous motility of the colon in anesthetized rats. The series is classed as in vivo, rat. The following applies: 100 μmol/kg i.p. As to the method: The effects of the test substances on the amplitudes and frequencies of gastric and intestinal contractions were measured by the following experimental method. Determination of the activity of the test substances on the spontaneous motility of the colon in anesthetized rats.
Fasting rats of the SIV 50 strain having a body weight of 180-250 g were anesthetized with a ketamine/xylazine mixture. The animals were tracheotomised and laparotomised. After applying a pylorus ligature, a stomach tube was inserted into the stomach and connected at the other end to a calibrated pressure transducer (Statham element P 23 ID) via a three-way tap. A corresponding tube was inserted rectally 8 to 9 cm into the colon and likewise connected, in the same manner, to a corresponding calibrated pressure transducer. The stomach of the animals was then filled with 2 to 3 ml of water via the tube. The pressure variations in the colon were recorded before and after administration of the test substances using a Watanabe multicorder (MC 641). The differences between the average amplitudes before and after the treatment were determined, and the percent change in the average amplitudes caused by the test substances relative to the values obtained before the treatment is reported in the following Table B.

For series [2] the following is noted: in vivo, po, 1440 min. As to the method:
Male mice weighing 20-25 g were orally administered maximum doses of 300 mg/kg of the test substance. The animals were carefully observed for toxic symptoms for three hours. All symptoms and deaths over a period of 24 hours after administration were also recorded. Accompanying symptoms were likewise observed and recorded. If death or strongly toxic symptoms was observed, increasingly smaller doses were administered to further mice until toxic symptoms no longer occurred. The lowest dose which caused death or strongly toxic symptoms is given as the minimum toxic dose in the following Table B.

Take `COc1ccc(CCN(C)CCN(C)CCOCC[C@@H]2CC[C@H]3C[C@@H]2C3(C)C)cc1OC` [Example 21]: in series [1], the EC50 (as a rule, the concentration needed to bring the measured effect to its halfway point) was 3.6 µM. In addition, the “Action on spontaneous motility in the colon, % amplitude reduction” value (shortened to “Action … % amplitude reduction”) in the series with colon is 62%. The “Minimum toxic dose in the mouse” value in series [2] is on record as 300 mg/kg.

For `COc1ccc(CN(CCN(C)CCO[C@@H]2C[C@H](C)CC[C@H]2C(C)C)C(C)C)cc1OC` [Example 23], the EC50 in series [1] is 1.5 µM.

As for `CC(C)[C@@H]1CC[C@@H](C)C[C@H]1OCCN(C)CCOCc1ccccc1` [Example 35], the half-maximal effective concentration (EC50) in series [1] is 1.9 µM.

With `CC(C)[C@@H]1CC[C@@H](C)C[C@H]1OCCN(C)CCN(C)CCCCc1ccccc1` [Example 50], in series [1], the EC50 came out at 1.3 µM.

Regarding `CN(CCCCCOCC[C@@H]1CC[C@H]2C[C@@H]1C2(C)C)CCN1CCOCC1` [Example 10, N-(5-[2-((1S,2S,5S)-6,6-dimethylbicyclo[3.1.1]hept-2-yl)ethoxy]pentyl)-N-[2-(morpholin-1-yl)ethyl]-N-methylamine], in series [1], the EC50 is 30 µM.

`CCOCCN(C)CCOCC[C@@H]1CC[C@H]2C[C@@H]1C2(C)C` [Example 22]: the EC50 in series [1] is 8.7 µM. For the same molecule, the “Action … % amplitude reduction” value in the series on colon was 85%. The “Minimum toxic dose in the mouse” value in series [2] stood at 100 mg/kg.

As for `CC(C)[C@@H]1CC[C@@H](C)C[C@H]1OCCN(C)CCN(C)CCc1ccccc1Cl` [Example 46], the EC50 in series [1] stood at 4.8 µM.

In the case of `CC(C)N(CCOCC[C@@H]1CC[C@H]2C[C@@H]1C2(C)C)CCN1CCOCC1` [Example 20], the EC50 in series [1] was determined as 7.9 µM. The “Action … % amplitude reduction” value in the series on colon is on record as 69%. Further, in series [2], the “Minimum toxic dose in the mouse” value is listed as greater than 300 mg/kg.

As for `CC(C)[C@H]1CC[C@H](C)C[C@@H]1OCCN(C)CCN1CCOCC1` [Example 24], the 50% effective concentration (EC50) in series [1] came to 14 µM.

Turning to `CN(CCSCC[C@@H]1CC[C@H]2C[C@@H]1C2(C)C)CCN1CCOCC1` [Example 7, N-(2-[2-((1S,2S,5S)-6,6-dimethylbicyclo[3.1.1]hept-2-yl)ethylthio]ethyl)-N-[2-(morpholin-1-yl)ethyl]-N-methylamine], in series [1], the EC50 stood at 16 µM.

In the case of `COc1cc(CN(C)CCN(C)CCO[C@@H]2C[C@H](C)CC[C@H]2C(C)C)cc(OC)c1OC` [Example 19, N-[2-((1R,3R,4S)-1-methyl-4-isopropylcyclohex-3-yloxy)ethyl]-N-(2-[N'-(3,4,5-trimethoxybenzyl)-N'-methylamino]ethyl)-N-methylamine], in series [1], the EC50 was found to be 0.54 µM. In the series with colon, the “Action … % amplitude reduction” value was 74%.

Take `CC(C)[C@@H]1CC[C@@H](C)C[C@H]1OCCN(C)CCN(Cc1ccccc1)Cc1ccccc1` [Example 48]: the EC50 in series [1] is 0.68 µM. In addition, the “Action … % amplitude reduction” value in the series with colon worked out at 85%.

Consider `CC(C)[C@@H]1CC[C@@H](C)C[C@H]1OCCN(C)CCN1CCCC1` [Example 32], for which the EC50 in series [1] turned out to be 20 µM.

On to `CC(C)[C@@H]1CC[C@@H](C)C[C@H]1OCCN(C)CCCCCCN1CCOCC1` [Example 36], for which the EC50 in series [1] turned out to be 43 µM.

As to `CC(C)[C@@H]1CC[C@@H](C)C[C@H]1OCCN(C)CCN1CCN(C)CC1` [Example 34], the EC50 in series [1] was found to be 47 µM.

Consider `CC(C)[C@@H]1CC[C@@H](C)C[C@H]1OCCN(C)CCN1CCOCC1` [Example 1, N-[2-((1R,3R,4S)-1-methyl-4-isopropylcyclohex-3-yloxy)ethyl]-N-[2-(morpholin-1-yl)ethyl]-N-methylamine], for which, in series [1], the EC50 stood at 12 µM. In addition, the “Action … % amplitude reduction” value in the series with colon came out at 55%. Besides, the “Minimum toxic dose in the mouse” value in series [2] is reported as greater than 300 mg/kg.

For `CC(C)[C@@H]1CC[C@@H](C)C[C@H]1OCCN(C)CCNCc1ccc(Cl)c(Cl)c1` [Example 44], the half-maximal effective concentration (EC50) in series [1] is 2.4 µM.

Turning to `CC(C)COCCN(C)CCO[C@@H]1C[C@H](C)CC[C@H]1C(C)C` [Example 2, N-[2-((1R,3R,4S)-1-methyl-4-isopropylcyclohex-3-yloxy)ethyl]-N-[2-(2,2-dimethylethoxy)ethyl]-N-methylamine], the EC50 in series [1] came out at 2 µM. Moreover, the “Action … % amplitude reduction” value in the series on colon stood at 55%. For the same molecule, the “Minimum toxic dose in the mouse” value in series [2] is recorded as greater than 300 mg/kg.

For `CC(C)COCCNCCO[C@@H]1C[C@H](C)CC[C@H]1C(C)C` [Example 16, N-[2-((1R,3R,4S)-1-methyl-4-isopropylcyclohex-3-yloxy)ethyl]-N-[2-(2,2-dimethylethoxy)ethyl]amine], the EC50 in series [1] was determined as 4.9 µM.

Turning to `CN(CCO[C@H]1C(C)(C)[C@@H]2CC[C@@]1(C)C2)CCN1CCOCC1` [Example 37], the concentration for a half-maximal effect (EC50) in series [1] is 26 µM.

For the molecule `CN(CCO[C@@H]1C[C@@H]2CC[C@@]1(C)C2(C)C)CCN1CCOCC1` [Example 38], the 50% effective concentration (EC50) in series [1] worked out at 19 µM.

(Values after patent US5212173A, “Alkylaminoalkylamine and ether compounds, processes and intermediates for their preparation, and medicaments containing them” (Kali-Chemie Pharma GmbH, priority 1990, dated 1993).)
